Measured values published in paper PMC5315023 (Nature, 2016).

Test system: MEFs expressing Mfn1 or Mfn2 in any combination
Test: Mitochondrial aspect ratio/morphology with adenovirally expressed minipeptides
Format: cell-based, mouse
Details: adenoviral expression, MOI of 100, MEFs

Sequence: RQVSTAMAEEIRRLSVLVDDY [Adeno428-448]
- Effect on mitochondrial fusion / morphology: did not affect mitochondrial fusion
